What was measured:
[1] = molecular target: HER4 (ErbB4) (Homo sapiens, UniProt Q15303); test: in vitro enzyme activity, HER4 (ErbB4); assay type: biochemical; settings: human ErbB4, [γ-33P]ATP, poly(Glu, Tyr) substrate
Experimental: The purpose of this assay is to detect the in vitro inhibitory activity of compounds on HER1 (ErbB1), HER2 (ErbB2), and HER4 (ErbB4). The enzymes used in this assay are human ErbB1, ErbB2 and ErbB4. Eurofins Pharma Discovery Service provided the method for activity detection.
Steps and Method of the Assay (96-Well Plate):
A buffer solution of the test compounds in a dilution of 5-fold (5 μL), polypeptide substrate poly(Glu, Tyr) (4:1) (2.5 μL), ErbB (4-20 ng, 2.5 μL), MnCl2 (50 mM, 1.25 μL), dH2O (3.75 μL), and [γ-^33P]ATP (10 μL) were added, and incubated at 30° C. for 10 minutes. The reaction was terminated by adding 3% phosphoric acid. 10 μL of the sample was taken and transferred to Filtermate A. The filter disc was washed 3 times with 75 mM phosphoric acid and once with methanol. The filter disc was transferred to a sealed plastic bag and the scintillation mixture (4 mL) was added. The intensity of the emitted photon was detected by a scintillation luminescence counter. The CPM (times/min) of the enzyme sample was compared with the CPM of the internal control sample. The level of photon intensity reflected the degree of the tyrosine kinase activity.

[2] = tested on: OE19 cells; test: CTG assay of OE19 cells; assay type: cell-based; settings: Homo sapiens, 72 hours of cell culture, Cell Titer Glo
Experimental: OE19 cells with saturation of 80%-90% were digested with trypsin, centrifuged, resuspended and counted. The concentration of cells was adjusted to […]. OE19 cells were added to a 96-well cell culture plate to 8000 OE19 cells per well. The cells were cultured in a cell incubator containing 5% CO2 at 37° C. overnight.
The stock solution of the test compounds was serially 3-fold diluted with DMSO to a total of 10 concentrations. Before the start of the assay, the serially diluted test compounds were further diluted to 10× compound solutions (the compound with a highest concentration contains 1% DMSO) with cell culture medium under sterile conditions. The prepared 10× compound solutions were added to the cell culture plate, and the 10 μL compound solution was added to each well. In this way, the final concentrations of staurosporine as the standard control and all the test compounds were obtained starting from […] as the initial concentration in a 3-fold serial dilution to get 10 test concentrations.
After 72 hours of cell culture, the 96-well cell culture plate was taken out. Cell Titer Glo reagent was added at […], mixed, centrifuged, and incubated at room temperature in the dark for 10 minutes. The cell plate was placed in Envision for reading.
The inhibition rate was calculated according to original data as follows:
Inhibition %=(ZPE−sample detection value)/(ZPE−HPE)×100%
The well containing 10 mM staurosporine on DAY3 (the first day of the assay is the day when compounds were added, and DAY3 is the day when reading is perfomed) was used as the HPE (100% inhibition control) well, and the well containing 0.1% DMSO on DAY3 was used as the ZPE (0% inhibition control) well. Each concentration of test compounds was tested in duplicate.
Non-linear regression analysis was performed using the processed data and GraphPad Prism 6 analysis software to obtain a dose-response curve, and the half-inhibitory concentration (IC50) of the test compounds on OE19 cells was calculated.

[3] = molecular target: T1, CYP3A4 (Homo sapiens, UniProt P08684); test: inhibition of CYP enzyme activity in human liver microsome, CYP3A4; assay type: in vitro ADME
T1 construct: in the assay of CYP enzyme activity in human liver microsome; from tissue; host or cells: human liver microsome
T1 sequence (P08684 whole entry): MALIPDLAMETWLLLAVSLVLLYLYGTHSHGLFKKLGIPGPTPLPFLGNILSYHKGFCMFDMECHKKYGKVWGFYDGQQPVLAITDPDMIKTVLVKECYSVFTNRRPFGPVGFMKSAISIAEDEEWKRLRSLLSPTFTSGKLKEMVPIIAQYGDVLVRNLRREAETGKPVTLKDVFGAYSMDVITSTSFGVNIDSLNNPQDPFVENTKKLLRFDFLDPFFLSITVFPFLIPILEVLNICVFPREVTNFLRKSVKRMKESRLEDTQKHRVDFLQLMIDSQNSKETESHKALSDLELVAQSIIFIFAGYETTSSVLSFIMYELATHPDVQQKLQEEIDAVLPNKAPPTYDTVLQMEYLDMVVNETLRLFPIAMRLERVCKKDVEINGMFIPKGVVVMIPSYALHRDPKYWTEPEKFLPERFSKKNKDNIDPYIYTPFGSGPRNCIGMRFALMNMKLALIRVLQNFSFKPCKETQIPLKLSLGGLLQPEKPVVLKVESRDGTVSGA
Text: The results of the compounds disclosed herein and the reference compound Poziotinib in the assay of CYP enzyme activity in human liver microsome were shown in the following table (Table 8).

[4] = tested on: subcutaneous xenograft tumor of human esophageal carcinoma OE21 cells; assay type: in vivo; settings: 2/1.5 mg/kg; for Tumor volume (mm3) (Day 21): OE21 xenograft, Mean + SEM; for T/C (%) / TGI (%): day 21
Experimental: Purpose of the assay: to evaluate the in vivo efficacy of the compounds to be tested on subcutaneous xenograft tumor of human esophageal carcinoma OE21 cells in a BALB/c nude mouse model.
Animals of the assay: female BALB/c nude mice, 6-8 weeks old, weighing 17-23 grams; supplier: shanghai sippr bk laboratory animals Ltd.
Human esophageal carcinoma OE21 cells were cultured in monolayer in vitro. The culture conditions were RPMI-1640 medium plus 10% fetal bovine serum, 100 U/mL penicillin, 100 U/mL streptomycin and 2 mM glutamine, 37° C., 5% CO2. The passaging was performed by conventional digestion with trypsin-EDTA twice a week. When the cell saturation was 80%-90%, the cells were collected, counted and inoculated.
0.1 ml […] OE21 cells (PBS) were inoculated subcutaneously on the right back of each mouse. When the average tumor volume reached 112 mm^3, administration to each group was started.
The test compound was formulated into a 0.15 mg/mL to 0.3 mg/mL clear or suspension solution in the solvents of 10% NMP+10% ethylene glycol stearate+80% water. 6.4 Tumor measurement and assay index
The assay index is to investigate whether tumor growth is inhibited, delayed or cured. Tumor diameter was measured twice a week with vernier caliper. The calculation formula of tumor volume is: V=0.5a×b^2, wherein a and b represent the long and short diameters of tumor, respectively.
The antitumor efficacy of the compounds were evaluated by TGI (%) or relative tumor proliferation rate T/C (%). TGI (%) reflects the tumor growth inhibition rate. TGI (%) is calculated as follows: TGI (%)=[(1−(average tumor volume at the end of administration for a certain treatment group−average tumor volume at the beginning of administration for this treatment group))/(average tumor volume at the end of treatment for a solvent control group−average tumor volume at the beginning of administration for this solvent control group)]×100%.
Relative tumor proliferation rate T/C (%): the calculation formula is as follows: T/C (%)=average tumor volume at the end of administration for a certain treatment group/average tumor volume at the end of treatment for the solvent control group×100%.
Statistical analysis included the mean and standard error (SEM) of tumor volume at each time point in each group. One-way ANOVA was used for comparison among three or more groups. […] SPSS 17.0 was used for all data analysis. p<0.05 is considered a significant difference.

HER4 (ErbB4), sequence (Q15303 26-1308): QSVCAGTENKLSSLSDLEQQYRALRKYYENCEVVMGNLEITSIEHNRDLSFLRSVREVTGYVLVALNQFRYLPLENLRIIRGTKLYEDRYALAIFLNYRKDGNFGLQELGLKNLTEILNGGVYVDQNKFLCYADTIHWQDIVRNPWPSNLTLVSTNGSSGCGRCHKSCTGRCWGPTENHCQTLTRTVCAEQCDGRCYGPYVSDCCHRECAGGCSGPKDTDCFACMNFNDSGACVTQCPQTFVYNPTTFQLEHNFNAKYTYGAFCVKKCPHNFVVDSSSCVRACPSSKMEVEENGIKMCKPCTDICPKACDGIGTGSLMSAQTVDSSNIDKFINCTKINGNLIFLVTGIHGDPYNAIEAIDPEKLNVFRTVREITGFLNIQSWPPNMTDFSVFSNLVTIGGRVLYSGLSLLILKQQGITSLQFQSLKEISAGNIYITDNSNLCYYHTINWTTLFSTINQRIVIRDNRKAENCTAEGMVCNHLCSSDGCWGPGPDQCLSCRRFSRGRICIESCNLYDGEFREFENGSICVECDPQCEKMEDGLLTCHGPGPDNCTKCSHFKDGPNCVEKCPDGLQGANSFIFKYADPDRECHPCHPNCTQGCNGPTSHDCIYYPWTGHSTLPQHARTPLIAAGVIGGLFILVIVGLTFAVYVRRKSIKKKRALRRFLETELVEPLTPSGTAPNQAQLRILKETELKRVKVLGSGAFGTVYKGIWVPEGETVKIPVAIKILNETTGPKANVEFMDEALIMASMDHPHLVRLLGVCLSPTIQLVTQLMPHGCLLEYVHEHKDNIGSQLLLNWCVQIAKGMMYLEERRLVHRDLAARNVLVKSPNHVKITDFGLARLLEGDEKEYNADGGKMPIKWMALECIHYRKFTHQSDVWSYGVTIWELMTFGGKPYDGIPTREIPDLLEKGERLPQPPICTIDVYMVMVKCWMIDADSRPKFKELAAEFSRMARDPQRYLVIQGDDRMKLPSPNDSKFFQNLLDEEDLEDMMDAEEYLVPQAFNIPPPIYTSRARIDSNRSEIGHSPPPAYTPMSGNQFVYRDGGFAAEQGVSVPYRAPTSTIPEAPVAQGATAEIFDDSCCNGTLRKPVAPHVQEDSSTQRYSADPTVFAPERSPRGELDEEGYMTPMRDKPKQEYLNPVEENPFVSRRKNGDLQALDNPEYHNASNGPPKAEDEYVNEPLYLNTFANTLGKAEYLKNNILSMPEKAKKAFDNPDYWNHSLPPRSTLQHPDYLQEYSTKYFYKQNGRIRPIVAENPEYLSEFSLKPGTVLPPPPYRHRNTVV

Structure (SMILES) | IC50 [1] [nM] | IC50 [2] [nM] | IC50 [3] [nM] | inhibition of CYP enzyme CYP3A4 [3] | Tumor volume (mm3) (Day 21) [4] | T/C (%) [4] [%] | TGI (%) [4] [%]
C=CC(=O)N1[C@@H]2CC[C@H]1C[C@H](Oc1cc3c(Nc4ccc(Cl)c(Cl)c4F)ncnc3cc1OC)C2 [Example 8] | 3.5 | 0.48 |  |  |  |  | 
C=CC(=O)N1CCC(Oc2cc3c(Nc4ccc(Cl)c(Cl)c4F)ncnc3cc2OC)CC1 [Poziotinib, reference compound] |  |  | > 50000 | no inhibitory activity | 57 ± 7 | 6.05 | 106.65
C=CC(=O)N1[C@@H]2CC[C@H]1C[C@H](Nc1cc3c(Nc4ccc(Cl)c(Cl)c4F)ncnc3cc1OC)C2 [Example 38] | 3 | 1.2 | > 50000 | no inhibitory activity | 55 ± 13 | 5.82 | 106.65

Reference: US20210078958A1, “QUINAZOLINE DERIVATIVE AND USE THEREOF” (MEDSHINE DISCOVERY INC., priority 2017, published 2021)
